Reference: patent publication US20230331707A1, “PROGRAMMED CELL NECROSIS INHIBITOR, PREPARATION METHOD THEREFOR, AND USE THEREOF” (Shanghai Institute of Organic Chemistry, Chinese Academy of …, priority 2020, published 2023)
Like-named read-outs stand apart in the source and are kept apart here.

How the values were obtained:
[1] = system: MEFs cells expressing RIPK1 WT; experiment: TSZ-induced programmed necrosis in MEFs cells expressing RIPK1 WT; format: cell-based, mouse
Description: (§1) The adopted biological test protocol was: the effect of compounds on programmed necrosis in MEFs cells (mouse embryonic fibroblasts) with RIPK1 S161E mutation.
(§2) In order to verify the inhibitory effect of the compound of the present invention on the highly activated RIPK1 kinase at the cellular level, MEFs cells stably expressing RIPK1 S161E (simulating the activation state of RIPK1 after phosphorylation) were selected, TNFα-SM164-zVAD (Caspase inhibitor for inhibiting apoptosis) (TSZ) was used in combination to induce programmed cell necrosis, and cell viability was calculated by detecting chemiluminescence values, thereby obtaining the biological activity of the compound in inhibiting programmed necrosis.
(§3) Methods: MEFs cells replenished by RIPK1: WT-RIPK1, S161A-RIPK1 and S161E-RIPK1 were replenished in RIPK1 stable knockout cells respectively. After stable expression and being cultured to logarithmic growth phase, the cells were collected, and centrifuged at 1000 rpm for 5 min. The supernatant was discarded. Cell concentration was adjusted to 5×10^4/mL, and cells were inoculated into 384-well plates with 40 μL per well. Cell culture medium diluted SM164 (100 nM), zVAD (50 μM) and compound, each […], were added to the corresponding wells. After pretreatment at 37° C. for 1 h, 5 μL of cell culture medium diluted TNF (50 ng/mL) was added to each well in the stimulated group and 5 μL of culture medium was added to the control group. […] The unstimulated DMSO control wells (Ctrl) were taken as 100% cell viability. EC50 values of the compounds were calculated using Prism Graphpad statistical software.

FADD−/− Jurkat cells = experiment: Inhibition of TNF-induced programmed necrosis of FADD deficient Jurkat cells (Cell Titer-Glo viability); format: cell-based; details: for EC50: FADD−/− Jurkat cells
Description: (§4) The adopted biological assay protocol was: the effect of compounds on programmed necroptosis of TNF-induced FADD (Fas-Associated Death Domain) deficient Jurkat cells and L929 cells.
(§5) In order to verify the inhibitory effect of the compounds of the present invention on programmed cell necrosis at the cellular level, cell types that is closely related to the RIP1 pathway, namely FADD deficient Jurkat cells (human peripheral blood leukemia T cell strain) and L929 cells, were selected. Two different stimulation methods were used: tumor necrosis factor (TNFα) was used alone, or TNFα was used in combination with mitochondria-derived cysteine aspartate activator (SMAC) SM164. Cells viability was calculated by detecting chemiluminescence values, thereby obtaining the biological activity of the compound on the inhibition of programmed cell necrosis.
(§6) Methods: FADD deficient Jurkat cells: FADD deficient Jurkat cells (human peripheral blood leukemia T cell line) were cultured in vitro. After growing to the logarithmic growth phase, the cells were collected, centrifuged at 1000 rpm for 5 min, the supernatant was discarded, and the cell concentration was adjusted to 2.5×10^5/mL. Cells were seeded into 384-well plates, 40 μl per well. 5 μL of SM164 (50 nM) diluted in cell culture medium and 5 μL of each compound were added to the corresponding wells. After pretreatment at 37° C. for 1 h, 5 μL of TNFα (50 ng/mL) diluted in cell culture medium was added to each well of the stimulation group, and 5 μL of the culture medium was added to the control group. The plate was cultured in a cell incubator (37° C., 5% CO2) for 14 h, and […] of Cell Titer-Glo solution was added to each well, then incubated for 30 min at room temperature, and intracellular ATP level was measured by detecting luminescence. The unstimulated DMSO control wells were taken as 100% cell viability. L929 cells: The L929 cells (mouse fibroblasts) were cultured in vitro, digested and diluted to 6.25×10^4/ml, and the cells were seeded into 384-well plates, 40 μl per well. The plate was placed in a cell incubator (37° C., 5% CO2) for 12 hours. 5 μL of SM164 (500 nM) diluted in cell culture medium and 5 μL of each compound were added to the corresponding wells. After pretreatment at 37° C. for 1 h, 5 μL of TNFα (500 ng/mL) diluted in cell culture medium was added to each well of the stimulation group, and 5 μL of the culture medium was added to the control group. After the plate was cultured for 14 h in a cell incubator (37° C., 5% CO2), 15 μl of Cell Titer-Glo solution was added to each well. The plate was incubated at room temperature for 30 min, and intracellular ATP level was measured by detecting luminescence. The unstimulated DMSO control wells were taken as 100% cell viability. EC50 values of the compounds were calculated using Prism Graphpad statistical software.

L929 cells = experiment: Inhibition of TNF-induced programmed necrosis of L929 cells (Cell Titer-Glo viability); format: cell-based, mouse
Description: as §4, §5, §6

[2] = system: MEFs cells expressing RIPK1 S161E mutant; experiment: TSZ-induced programmed necrosis in MEFs cells expressing RIPK1 S161E mutant; format: cell-based, mouse
Description: as §1, §2, §3

[3] = Liver microsomal stability test, human; format: in vitro ADME; details: human liver microsomes, NADPH, 37° C.; for half-life at 1 µM: human, liver microsomes, read-out: T1/2 (min) Human
Description: (§7) The adopted biological test protocol was: testing the half-life of the compound in human- or mouse-derived liver microsomes.
(§8) Liver microsomes contain many enzymes involved in drug metabolism, especially cytochrome P-450, and therefore it is one of the major tissues involved in drug metabolism in living organisms. There are some correlations between the stability of the compound in liver microsomes and the pharmacogenetic stability thereof in vivo. Therefore, the relative stability of compounds in vivo can be roughly predicted by testing the half-life of different compounds in human- or mouse-derived liver microsomes. The specific methods were as follows:
(§9) Methods: 0.75 μL of 0.5 mM samples (compounds to be tested and control verapamil), 9.38 μL of 20 mg/mL liver microsomes (Human and Mouse) were taken and added to 239.88 μL PBS (on ice), and divided into 30 μL/tube samples respectively. The samples were incubated at 37° C. in a constant temperature water bath for 5 min, and then all samples were taken out. At zero-time, control group was added with 90 μL of ice acetonitrile first, and then added with 15 μL of 3 mM NADPH solution sequentially, and incubated at 37° C. in a constant temperature water bath. The corresponding samples were taken out after 5 min, 10 min, 20 min, 30 min and 60 min, respectively, and quenched by adding 90 μL of ice acetonitrile. All samples were centrifuged at 10000 rpm for 10 min, and the supernatants were taken and placed in a liquid phase vial waiting for LC-MS analysis.

[4] = Liver microsomal stability test, mouse; format: in vitro ADME; details: mouse liver microsomes, NADPH, 37° C.; for half-life at 1 µM: mouse, liver microsomes, read-out: T1/2 (min) Mouse
Description: as §7, §8, §9

[5] = Homo sapiens, Jurkat, 14 h, stimulated with TNFα + SM164, read-out: EC50 (μM) FADD−/− Jurkat cells (human) TNFα + SM164
[6] = Homo sapiens, Jurkat, stimulated with TNFα alone, read-out: EC50 (μM) FADD−/− Jurkat cells (human) TNFα
[7] = Mus musculus, L929, L929 cells, stimulated with TNFα + SM164, read-out: EC50 (μM) L929 cells (mouse) TNFα + SM164
[8] = Mus musculus, L929, L929 cells, stimulated with TNFα alone, read-out: EC50 (μM) L929 cells (mouse) TNFα
[9] = stimulated with TNFα + SM164, read-out: EC50 (μM) FADD−/− Jurkat cells (human) TNFα + SM164
[10] = L929 cells, stimulated with TNFα + SM164, read-out: EC50 (μM) L929 cells (mouse) TNFα + SM164
[11] = L929 cells, stimulated with TNFα alone, read-out: EC50 (μM) L929 cells (mouse) TNFα

SMILES	EC50 (FADD−/− Jurkat cells; [5]) [nM]	EC50 (FADD−/− Jurkat cells; [6]) [nM]	EC50 (L929 cells; [7]) [nM]	EC50 (L929 cells; [8]) [nM]	half-life at 1 µM [3] [min]	half-life at 1 µM [4] [min]	also measured
COc1cc2ncn(-c3ccc(CNC(=O)c4cnn(C)c4Cc4ccccc4)cc3)c2cc1OC [QY-11-76]	0.05	0.0243	0.432	0.0598	–	–	inhibition of programmed necrosis ([1]; 600 nM): can effectively inhibit the occurrence of programmed necrosis; activity of inhibition of programmed necrosis compared with GSK2982772 (FADD−/− Jurkat cells; human FADD-deficient Jurkat cells, TNFα alone or in combination with SM164): stronger activity; inhibition of programmed necrosis (in words) (L929 cells; mouse-derived L929 cells): excellently inhibit the occurrence of programmed necrosis; inhibition of programmed necrosis ([2]; 600 nM): can significantly inhibit occurrence of programmed necrosis
CNC(=O)c1ccc2c(c1)ncn2-c1ccc(CNC(=O)c2cc(Cc3ccccc3)on2)cc1 [QY-6-16, 5-Benzyl-N-(4-(5-(methylcarbamoyl)-1H-benzo[d]imidazol-1-yl)benzyl) isoxazol-3-formamide]	113	8.1	3350	2140	21.7	24.8	–
CCn1nc(C(=O)NCc2ccc(-n3cnc4cc(C(=O)NC)ccc43)cc2)cc1Cc1ccccc1 [XHJ-4-36]	42.8	5.91	> 10000	10.7	46.2	10.7	–
Cn1ncc(C(=O)NCc2ccc(-n3cnc4c(N)nccc43)cc2)c1Cc1ccccc1 [QY-11-77]	0.838	0.012	0.63	1.17	–	–	inhibition of programmed necrosis ([1]; 600 nM): can effectively inhibit the occurrence of programmed necrosis; inhibition of programmed necrosis ([2]; 600 nM): can significantly inhibit occurrence of programmed necrosis
CCn1nc(C(=O)NCc2ccc(-n3ccc4c(N)ncnc43)cc2)cc1Cc1ccccc1 [QY-9-33]	1040	3.77	> 10000	> 10000	9.6	11.2	–
Cn1nc(C(=O)NCc2ccc(-n3cnc4c(N)ncnc43)cc2)cc1Cc1ccccc1 [QY-8-43, N-(4-(6-amino-9H-purin-9-yl)benzyl)-5-benzyl-1-methyl-1H-pyrazole-3-carboxamide]	–	–	–	–	38.5	23.9	EC50 (FADD−/− Jurkat cells; [9]): 17.7 nM; EC50 (FADD−/− Jurkat cells; stimulated with TNFα alone, read-out: EC50 (μM) FADD−/− Jurkat cells (human) TNFα): 2.85 nM; EC50 (L929 cells; [10]): 152 nM; EC50 (L929 cells; [11]): 11.1 nM
CNC(=O)c1ccc2c(c1)ncn2-c1ccc(CNC(=O)c2noc(Cc3ccccc3)n2)cc1 [QY-7-14, 5-Benzyl-N-(4-(5-(methylcarbamoyl)-1H-benzo[d]imidazol-1-yl)benzyl)-1,2,4-oxadiazol-3-carboxamide]	180	24.3	4740	962	13.9	77	–
CNC(=O)c1ccc2c(c1)ncn2-c1ccc(CN2CCc3cn(Cc4ccccc4)nc3C2=O)cc1 [QY-8-7]	37.8	10.8	> 10000	3000	46.2	12.2	–
CN1C(=O)N[C@H](Cc2c[nH]c3c(Cl)cccc23)C1=O [Nec-1s, reference compound]	900	228	–	–	–	–	inhibition of programmed necrosis ([1]; 10 μM): can effectively inhibit the occurrence of programmed necrosis; EC50 (L929 cells; Mus musculus, L929, read-out: EC50 (μM) L929 cells (mouse) TNFα): 443 nM; inhibition of programmed necrosis ([2]; 10 μM): does not exhibit inhibition
Cn1ncc(C(=O)NCc2ccc(-n3cnc4c(N)ncnc43)cc2)c1Cc1ccccc1 [QY-11-78]	–	0.036	–	–	–	–	EC50 (FADD−/− Jurkat cells; [9]): 0.689 nM; EC50 (L929 cells; [10]): 23.2 nM; EC50 (L929 cells; [11]): 9.87 nM; T1/2 (min) Human [3]: 12.6 min; T1/2 (min) Mouse [4]: 23.9 min
CCn1nc(C(=O)NCc2ccc(-n3cnc4c(N)ncnc43)cc2)cc1Cc1ccccc1 [QY-9-34]	3.52	0.416	> 10000	8360	14.7	13.9	–
CN1CCN(CCNC(=O)c2ccc3c(c2)ncn3-c2ccc(CNC(=O)c3cnn(C)c3Cc3ccccc3)cc2)CC1 [QY-11-69B]	6.33	0.984	1.08	0.563	43.3	46.2	–
Nc1ncnc2c1ncn2-c1ccc(CN2CCc3cn(Cc4ccccc4)nc3C2=O)cc1 [QY-9-50]	12.1	0.191	2730	1390	86.6	116	–
Nc1ncnc2c1ccn2-c1ccc(CN2CCc3cn(Cc4ccccc4)nc3C2=O)cc1 [QY-9-41]	234	21.5	> 10000	> 10000	38.5	36.5	–
CNC(=O)c1ccc2c(c1)ncn2-c1ccc(CNC(=O)c2nnn(Cc3ccccc3)n2)cc1 [ZSQ-13-36]	150	24	4310	1110	99	99	–
